Measured values from patent US11247965B2 (VenatoRx Pharmaceuticals, Inc., priority 2017, dated 2022).

Key:
[1] = test system: HBV replication in HepAD38 cells; experiment: Anti-HBV activity in HepAD38 cells, extracellular HBV DNA by QPCR; type: cell-based, HBV (genotype D, serotype ayw); details: Hepatitis B virus, HePAD38, 168 h, read-out: Anti-HBV EC50, HepAD38 cells, extracellular HBV DNA by QPCR, 7 days of incubation
Method in brief: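 Seven-day compound exposure (30 μM down to 10 nM, half-log steps) after tetracycline withdrawal induced HBV replication in HepAD38 cells. Extracellular viral DNA measured by QPCR (copies/mL via standard curve), normalised to DMSO wells; EC50 from 4-parameter non-linear regression.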

[2] = In vitro cytotoxicity, MTT cell viability assay in HepG2 cells; type: cell-based; details: human, Cytotoxicity CC50
Method in brief: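 Read-out: MTT formazan absorbance at 492 nm, expressed as % of vehicle signal; CC50 by 4-parameter non-linear regression. Parental HepG2, 20,000 cells/well, treated 7 days with compound from 30 μM down to 1.0 nM.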

| Compound | EC50 [1] [µM] | CC50 at 7 days [2] [µM] |
| --- | --- | --- |
| Cc1cc(NC(=O)c2ccc(F)c(C(F)(F)C(=O)N3CCC(N)CC3)c2)ccc1F [Example 230, 3-(2-(4-aminopiperidin-1-yl)-1,1-difluoro-2-oxoethyl)-4-fluoro-N-(4-fluoro-3-methylphenyl)benzamide] | < 5 | 5 to 30 |
| Cc1cc(NC(=O)c2ccc(F)c(C(F)(F)C(=O)N3CCC(NS(C)(=O)=O)CC3)c2)ccc1F [Example 231, 3-(1,1-difluoro-2-(4-(methylsulfonamido)piperidin-1-yl)-2-oxoethyl)-4-fluoro-N-(4-fluoro-3-methylphenyl)benzamide] | < 5 | 5 to 30 |
| Cc1cc(NC(=O)c2ccc(F)c(C(F)(F)C(=O)N3CCC(NC(=O)CC4CCOCC4)CC3)c2)ccc1F [Example 232, 3-(1,1-difluoro-2-oxo-2-(4-(2-(tetrahydro-2H-pyran-4-yl)acetamido)piperidin-1-yl)ethyl)-4-fluoro-N-(4-fluoro-3-methylphenyl)benzamide] | < 5 | 5 to 30 |
| Cc1cc(NC(=O)c2ccc(F)c(C(F)(F)C(=O)N3CCC(NC(=O)C4CCNC(=O)C4)CC3)c2)ccc1F (stereo not drawn) [Example 233, N-(1-(2,2-difluoro-2-(2-fluoro-5-((4-fluoro-3-methylphenyl)carbamoyl)phenyl)acetyl)piperidin-4-yl)-2-oxopiperidine-4-carboxamide] | < 5 | 5 to 30 |
| Cc1cc(NC(=O)c2ccc(F)c(C(F)(F)C(=O)N3CC[C@H](N)C3)c2)ccc1F [Example 234, (S)-3-(2-(3-aminopyrrolidin-1-yl)-1,1-difluoro-2-oxoethyl)-4-fluoro-N-(4-fluoro-3-methylphenyl)benzamide] | 5 to 30 | > 30 |
| Cc1cc(NC(=O)c2ccc(F)c(C(F)(F)C(=O)NC3CCC(C(=O)O)CC3)c2)ccc1F (stereo not drawn) [Example 235, (1r,4r)-4-(2,2-difluoro-2-(2-fluoro-5-((4-fluoro-3-methylphenyl)carbamoyl)phenyl)acetamido)cyclohexane-1-carboxylic acid] | 5 to 30 | > 30 |
| Cc1cc(NC(=O)c2ccc(F)c(C(F)(F)C(=O)NC3(C#N)CC3)c2)ccc1F [Example 236, 3-(2-((1-cyanocyclopropyl)amino)-1,1-difluoro-2-oxoethyl)-4-fluoro-N-(4-fluoro-3-methylphenyl)benzamide] | 5 to 30 | > 30 |
| Cc1cc(NC(=O)c2ccc(F)c(C(F)(F)C(=O)N3CCOC[C@H]3C(=O)O)c2)ccc1F [Example 237, (S)-4-(2,2-difluoro-2-(2-fluoro-5-((4-fluoro-3-methylphenyl)carbamoyl)phenyl)acetyl)morpholine-3-carboxylic acid] | 5 to 30 | > 30 |
| Cc1cc(NC(=O)c2ccc(F)c(C(F)(F)C(=O)N3CCc4[nH]cnc4C3)c2)ccc1F [Example 238, 3-(1,1-difluoro-2-oxo-2-(1,4,6,7-tetrahydro-5H-imidazo[4,5-c]pyridin-5-yl)ethyl)-4-fluoro-N-(4-fluoro-3-methylphenyl)benzamide] | < 5 | > 30 |
| COC(=O)N1C[C@H]2COC[C@@H](C1)N2C(=O)C(F)(F)c1cc(C(=O)Nc2ccc(F)c(C)c2)ccc1F [Example 239, methyl (1R,5S)-9-(2,2-difluoro-2-(2-fluoro-5-((4-fluoro-3-methylphenyl)carbamoyl)phenyl)acetyl)-3-oxa-7,9-diazabicyclo[3.3.1]nonane-7-carboxylate] | < 5 | 5 to 30 |
| Cc1cc(NC(=O)c2ccc(F)c(C(F)(F)C(=O)N3[C@@H]4CC[C@H]3CC(O)(CC#N)C4)c2)ccc1F (stereo partly drawn) [Example 240, 3-(2-((1R,5S)-3-(cyanomethyl)-3-hydroxy-8-azabicyclo[3.2.1]octan-8-yl)-1,1-difluoro-2-oxoethyl)-4-fluoro-N-(4-fluoro-3-methylphenyl)benzamide] | < 5 | < 5 |
| Cc1cc(NC(=O)c2ccc(F)c(C(F)(F)C(=O)N3[C@@H]4CC[C@H]3CC(O)(CC(N)=O)C4)c2)ccc1F (stereo partly drawn) [Example 241, 3-(2-((1R,5S)-3-(2-amino-2-oxoethyl)-3-hydroxy-8-azabicyclo[3.2.1]octan-8-yl)-1,1-difluoro-2-oxoethyl)-4-fluoro-N-(4-fluoro-3-methylphenyl)benzamide] | < 5 | 5 to 30 |
| Cc1cc(NC(=O)c2ccc(F)c(C(F)(F)C(=O)N3CCc4nc(N)sc4C3)c2)ccc1F [Example 242, 3-(2-(2-amino-6,7-dihydrothiazolo[5,4-c]pyridin-5(4H)-yl)-1,1-difluoro-2-oxoethyl)-4-fluoro-N-(4-fluoro-3-methylphenyl)benzamide] | < 5 | 5 to 30 |
| Cc1cc(NC(=O)c2ccnc(C(F)(F)C(=O)N3CCC(O)CC3)c2)ccc1F [Example 243, 2-(1,1-difluoro-2-(4-hydroxypiperidin-1-yl)-2-oxoethyl)-N-(4-fluoro-3-methylphenyl)isonicotinamide] | 5 to 30 | > 30 |
| Cc1cc(NC(=O)c2ccnc(C(F)(F)C(=O)N3C4CC[C@@H]3C[C@@H](C(=O)O)C4)c2)ccc1F [Example 244, (1R,3s,5S)-8-(2,2-difluoro-2-(4-((4-fluoro-3-methylphenyl)carbamoyl)pyridin-2-yl)acetyl)-8-azabicyclo[3.2.1]octane-3-carboxylic acid] | 5 to 30 | 5 to 30 |
| Cc1cc(NC(=O)c2ccnc(C(F)(F)C(=O)N3C4CC[C@@H]3C[C@@H](C(N)=O)C4)c2)ccc1F [Example 245, (1R,3s,5S)-8-(2,2-difluoro-2-(4-((4-fluoro-3-methylphenyl)carbamoyl)pyridin-2-yl)acetyl)-8-azabicyclo[3.2.1]octane-3-carboxamide] | 5 to 30 | > 30 |
| Cc1cc(NC(=O)c2ccc(F)c(C(F)(F)C(=O)N3C4CC[C@@H]3C[C@@H](O)C4)c2)cc(F)c1F [Example 246, 3-(1,1-difluoro-2-((1R,3s,5S)-3-hydroxy-8-azabicyclo[3.2.1]octan-8-yl)-2-oxoethyl)-N-(3,4-difluoro-5-methylphenyl)-4-fluorobenzamide] | < 5 | 5 to 30 |
| O=C(Nc1cc(F)c(F)c(F)c1)c1ccc(Cl)c(C(F)(F)C(=O)N2C3CC[C@@H]2C[C@@H](O)C3)c1 [Example 247, 4-chloro-3-(1,1-difluoro-2-((1R,3s,5S)-3-hydroxy-8-azabicyclo[3.2.1]octan-8-yl)-2-oxoethyl)-N-(3,4,5-trifluorophenyl)benzamide] | 5 to 30 | 5 to 30 |
| Cc1cc(NC(=O)c2ccc(F)c(C(F)(F)C(=O)N3CCC(O)(CO)CC3)c2)cc(F)c1F [Example 248, 3-(1,1-difluoro-2-(4-hydroxy-4-(hydroxymethyl)piperidin-1-yl)-2-oxoethyl)-N-(3,4-difluoro-5-methylphenyl)-4-fluorobenzamide] | < 5 | 5 to 30 |
| Cc1cc(NC(=O)c2ccc(F)c(C(F)(F)C(=O)N3C4CC[C@@H]3C[C@H](O)C4)c2)cc(F)c1F [Example 249, 3-(1,1-difluoro-2-((1R,3r,5S)-3-hydroxy-8-azabicyclo[3.2.1]octan-8-yl)-2-oxoethyl)-N-(3,4-difluoro-5-methylphenyl)-4-fluorobenzamide] | < 5 | 5 to 30 |
| Cc1cc(NC(=O)c2ccc(F)c(C(F)(F)C(=O)N3CCC(O)C(F)(F)C3)c2)cc(F)c1F (stereo not drawn) [Example 250, 3-(2-(3,3-difluoro-4-hydroxypiperidin-1-yl)-1,1-difluoro-2-oxoethyl)-N-(3,4-difluoro-5-methylphenyl)-4-fluorobenzamide] | < 5 | 5 to 30 |
| Cc1cc(NC(=O)c2ccc(F)c(C(F)(F)C(=O)N3CCC(O)C(F)(F)C3)c2)cc(F)n1 (stereo not drawn) [Example 251, 3-(2-(3,3-difluoro-4-hydroxypiperidin-1-yl)-1,1-difluoro-2-oxoethyl)-4-fluoro-N-(2-fluoro-6-methylpyridin-4-yl)benzamide] | 5 to 30 | 5 to 30 |
| Cc1cc(NC(=O)c2ccc(F)c(C(F)(F)C(=O)NC34CCC(NC(=O)OC(C)(C)C)(CC3)C4)c2)ccc1F [Example 252, tert-butyl (4-(2,2-difluoro-2-(2-fluoro-5-((4-fluoro-3-methylphenyl)carbamoyl)phenyl)acetamido)bicyclo[2.2.1]heptan-1-yl)carbamate] | 5 to 30 | < 5 |
| Cc1cc(NC(=O)c2ccc(F)c(C(F)(F)C(=O)NC34CCC(N)(CC3)C4)c2)ccc1F [Example 253, 3-(2-((4-aminobicyclo[2.2.1]heptan-1-yl)amino)-1,1-difluoro-2-oxoethyl)-4-fluoro-N-(4-fluoro-3-methylphenyl)benzamide] | < 5 | > 30 |
| Cc1cc(NC(=O)c2ccc(F)c(C(F)(F)C(=O)NC34CCC(O)(CC3)C4)c2)ccc1F [Example 254, 3-(1,1-difluoro-2-((4-hydroxybicyclo[2.2.1]heptan-1-yl)amino)-2-oxoethyl)-4-fluoro-N-(4-fluoro-3-methylphenyl)benzamide] | 5 to 30 | > 30 |
| Cc1cc(NC(=O)c2ccc(F)c(C(F)(F)C(=O)N3CC[C@H](O)C[C@H]3C)c2)ccc1F [Example 255] | < 5 | 5 to 30 |
| Cc1cc(NC(=O)c2cccc(C(F)(F)C(=O)N3C4CC[C@@H]3C[C@@H](O)C4)c2F)ccc1F [Example 256, 3-(1,1-difluoro-2-((1R,3s,5S)-3-hydroxy-8-azabicyclo[3.2.1]octan-8-yl)-2-oxoethyl)-2-fluoro-N-(4-fluoro-3-methylphenyl)benzamide] | < 5 | 5 to 30 |
